Conditions: in vivo

With OO [hydrogen peroxide] the “antibiotics use as fraction of the normal dose” value was “⅛” and the effect on mortality was “reduced mortality”.

Reference: patent US12114657B1, “Compositions for use in animal housing” (priority 2017, dated 2024)
